Test results published in ChEMBL document CHEMBL1777699, “Part 2: Design, synthesis and evaluation of hydroxyproline-derived α2δ ligands” (Bioorg Med Chem Lett, 2011).

Assays:
[1] = Displacement of [3H]gabapentin from voltage gated calcium channel alpha2delta from pig cerebral cortex by scintillation counting; type: tissue-based, Sus scrofa
[2] = Lipophilicity, log D of the compound; type: physicochemical; conditions: octanol/water
Rattus norvegicus = species on record: Rattus norvegicus; assay: Unbound clearance in rat; type: ADME, organism-based; conditions: in vivo
[3] = Plasma protein binding in human; type: ADME, cell-free; conditions: read-out: PPB (converted)
[4] = Half life in rat; type: ADME, organism-based; conditions: in vivo
[5] = Drug level in rat urine after 24 hrs; type: ADME; conditions: read-out: Drug uptake
Canis familiaris = species on record: Canis familiaris; assay: Unbound clearance in dog; type: ADME, organism-based, Canis lupus familiaris; conditions: in vivo
Plasma = assay: Cmax in human; type: ADME, organism-based; conditions: in vivo
[6] = Tmax in human; type: ADME; conditions: plasma
[7] = Half life in dog; type: ADME, organism-based, Canis lupus familiaris; conditions: in vivo
[8] = Half life in human; type: ADME, cell-free; conditions: plasma

Compound | IC50 [1] [nM] | other results
O=C(O)CNCCSc1ccc(Cl)cc1 | 195 | 
C[C@@]1(C(=O)O)C[C@H](Oc2cccc(Cl)c2)CN1 (stereo in doubt; 37) | > 10000 | 
C[C@@H](CNCC(=O)O)Oc1ccc(Cl)cc1 | 523 | 
CCCN1C[C@@H](Oc2cccc(Cl)c2)C[C@H]1C(=O)O | > 1000 | 
C[C@@]1(C(=O)O)C[C@H](Oc2cccc(Cl)c2)CN1 (stereo in doubt; 36) | 1260 | 
O=C(O)[C@@H]1C[C@H](Oc2ccc(Cl)c(F)c2)CN1 | 26 | logD [2]: 0.1; CL free (Rattus norvegicus): 108 mL/min/kg; fraction unbound [3]: 0.05; half-life [4]: 90 min
CCC(C)O[C@@H]1CN[C@H](C(=O)O)C1 (stereo partly drawn) | 269 | 
O=C(O)[C@@H]1C[C@H](Oc2ccccc2Cl)CN1 | 52 | 
COC(=O)[C@@H]1C[C@H](Oc2cccc(Cl)c2)CN1C(=O)OC(C)(C)C |  | dose excreted at 24 h [5]: 85%
O=C(O)[C@@H]1C[C@H](Oc2ccc3ccccc3c2)CN1 | 30 | 
CC(C)(C)OC(=O)N1C[C@@H](Oc2cccc(Cl)c2)C[C@H]1C(=O)O | > 1000 | 
O=C(O)[C@@H]1C[C@H](OCc2ccc(Cl)cc2)CN1 | 48 | logD [2]: -0.2; CL free (Rattus norvegicus): 26 mL/min/kg; fraction unbound [3]: 0.17; half-life [4]: 24 min
O=C(O)[C@@H]1C[C@H](Sc2cccc(Cl)c2)CN1 | 7 | logD [2]: 0.3; CL free (Rattus norvegicus): 56 mL/min/kg; fraction unbound [3]: 0.16; half-life [4]: 18 min
CC(C)(C)OC(=O)[C@@H]1C[C@H](Oc2cccc(Cl)c2)CN1 | 325 | 
Cl.O=C(O)[C@@H]1C[C@H](Oc2cccc(Cl)c2)CN1 | 4 | CL free (Canis familiaris): 49 mL/min/kg; Cmax (Plasma): 2400 nM; logD [2]: -0.1; CL free (Rattus norvegicus): 41 mL/min/kg; Tmax [6]: 30 min; fraction unbound [3]: 0.07; half-life [7]: 90 min; half-life [8]: 138 min; half-life [4]: 24 min
O=C(O)[C@@H]1C[C@H](Oc2ccccc2)CN1 | 102 | 
O=C(O)[C@@H]1C[C@H](Oc2cccc(F)c2)CN1 | 17 | 
O=C(O)CNCCOc1ccc(Cl)cc1 | > 8000 | 
O=C(O)[C@H]1C[C@@H](Oc2ccc(Cl)cc2)CN1 | > 10000 | 
O=C(O)[C@@H]1C[C@H](Oc2ccc(Cl)cc2)CN1 | 32 | 
O=C(O)[C@@H]1C[C@H](Oc2ccc(Cl)cn2)CN1 | 399 | 
N#Cc1ccccc1O[C@@H]1CN[C@H](C(=O)O)C1 | > 10000 | 
O=C(O)[C@@H]1C[C@H](Oc2cccc(O)c2)CN1 | 94 | 
O=C(O)[C@@H]1C[C@H](Oc2ccc3c(c2)OCC3)CN1 | 11 | logD [2]: -0.1; CL free (Rattus norvegicus): 111 mL/min/kg; fraction unbound [3]: 0.11; half-life [4]: 60 min
O=C(O)[C@@H]1C[C@H](Sc2ccc(Cl)cc2)CN1 | 72 | 
O=C(O)[C@@H]1C[C@H](Oc2ccc(OC(F)(F)F)cc2)CN1 | 1680 | 
O=C(O)[C@@H]1C[C@H](OCc2cccc(Cl)c2)CN1 | 14 | 
